In patent US10513511B2, “Aqueous suspension formulation comprising 4-(4-(4-(((3R,5R)-5-((1H-1,2,4-triazol-1-yl)methyl)-5-(2,4-difluoro-phenyl)tetrahydrofuran-3-yl)methoxy)-3-methylphenyl) or a pharmaceutically acceptable salt thereof” (PULMOCIDE LIMITED, priority 2015, dated 2019):
In brackets after ≈: the same amount, converted by molar mass.

How the values were obtained:
Type in all cases: cell-based
[1] = tested on: Aspergillus fumigatus NCPF2010; experiment: Planktonic fungus growth: broth microdilution assay (NCPF2010); details: Aspergillus fumigatus, NCPF2010, n = 2-3, read-out: MIC75 Values against Aspergillus fumigatus isolate NCPF2010
Protocol: (§1) This assay was conducted using a modified method published by EUCAST (Rodriguez-Tudela, et al., 2008). Spores of Aspergillus fumigatus (NCPF2010, NCPF7010 [methionine 220 mutation], NCPF7099 [Glycine G54 mutation]) from Public Health England, Wiltshire; TR34/L98H mutants from St Louis Hospital, Paris, France; TR46/Y121F/T289A mutants from University of Delhi, Delhi, India) were cultured in Sabouraud dextrose agar for 3 days. A stock spore suspension was prepared from a Sabouraud dextrose agar culture by washing with PBS-tween (10 mL; phosphate buffered saline containing 0.05% Tween-20, 100 U/mL penicillin and 100 U/mL streptomycin). The spore count was assessed using a Neubauer haemocytometer and then adjusted to 10^6 spores/mL with PBS. A working suspension of spores (2×10^5 spores/mL) was prepared in filter sterilised, BSA MOPS RPMI-1640 (50 mL; RPMI-1640 containing 2 mM L-glutamine, 0.5% BSA, 2% glucose, 0.165 M MOPS, buffered to pH 7 with NaOH).
(§2) For the assay, BSA MOPS RPMI-1640 (50 μL/well) was added throughout the 384-well plate (Catalogue number 353962, BD Falcon, Oxford, UK) first. Test compounds (0.5 μL DMSO solution) were then added in quadruplicate using an Integra VIAFLO 96 (Integra, Zizers, Switzerland), and mixed well using a plate mixer. Subsequently 50 μL of the working spore suspension prepared above was added to all wells except non-spore control wells. For non-spore control wells, BSA MOPS-RPMI solution (50 μL/well) was added instead. The plate was covered with a plastic lid, and incubated (35° C. with ambient air) for 48 hr. The OD of each well at 530 nm was determined using a multi-scanner (Clariostar: BMG, Buckinghamshire, UK). The percentage inhibition for each well was calculated and the MIC50, MIC75 and MIC90 values were calculated from the concentration-response curve generated for each test compound.

[2] = tested on: Aspergillus fumigatus L98H (TR34/L98H); experiment: Planktonic fungus growth: broth microdilution assay (L98H); details: Aspergillus fumigatus, read-out: MIC75 Values against Aspergillus fumigatus isolate L98H
Protocol: as §1, §2

[3] = tested on: Aspergillus fumigatus (NCPF2010); experiment: Aspergillus fumigatus infection of BEAS2B bronchial epithelial cells (galactomannan); details: NCPF2010, galactomannan in supernatant, 24 hr, n = 1-3, read-out: Infection of BEAS2B cells MIC50
Protocol: BEAS2B cells were seeded in 96-well plates (100 μL; 3×10^4 cells/well; Catalogue No 3596, Sigma Aldrich, Dorset, UK) in 10% FBS RPMI-1640 and were then incubated (37° C., 5% CO2) for one day before experimentation. Test compounds (0.5 μL DMSO solution) or vehicle (DMSO) were added to each well to give a final DMSO concentration of 0.5%. BEAS2B cells were incubated with test compounds for 1 hr (35° C., 5% CO2) before infection with Aspergillus fumigatus (20 uL; Public Health England) conidia suspension (0.5×10^5/mL in 10% FBS RPMI-1640). The plate was incubated for 24 hr (35° C., 5% CO2). Supernatant (50 uL) was collected and transferred to a PCR plate (Catalogue No L1402-9700, Starlab, Milton Keynes, UK), which was frozen (−20° C.) until use. After thawing, supernatant (5 μL) was diluted 1:20 by adding R7-PBS solution (95 μL; 1:4 R7 to PBS; Bio-Rad Laboratories, Redmond, Wash., USA). Galactomannan levels in these samples (50 μL) were measured using Platelia GM-EIA kits (Bio-Rad Laboratories, Redmond, Wash., USA). The percentage inhibition for each well was calculated and the IC50 value was calculated from the concentration-response curve generated for each test compound.

| Structure (SMILES) | MIC [1] | MIC [2] | MIC50 [3] |
| --- | --- | --- | --- |
| Cc1cc(N2CCN(c3ccc(C(=O)N[C@H]4CCCC[C@@H]4O)cc3)CC2)ccc1OC[C@@H]1CO[C@@](Cn2cncn2)(c2ccc(F)cc2F)C1 [Compound (Ia), 4-(4-(4-(((3R,5R)-5-((1H-1,2,4-triazol-1-yl)methyl)-5-(2,4-difluorophenyl)tetrahydrofuran-3-yl)methoxy)-3-methylphenyl)piperazin-1-yl)-N-((1S,2S)-2-hydroxycyclohexyl) benzamide] | 0.00281 µM (≈ 1.93 ng/mL) | 0.0127 µM (≈ 8.72 ng/mL) | 0.00635 µM (≈ 4.36 ng/mL) |
| CC[C@@H]([C@H](C)O)n1ncn(-c2ccc(N3CCN(c4ccc(OC[C@@H]5CO[C@@](Cn6cncn6)(c6ccc(F)cc6F)C5)cc4)CC3)cc2)c1=O [Posaconazole, reference compound] | 0.0109 µM (≈ 7.64 ng/mL) | 0.0983 µM (≈ 68.9 ng/mL) | 0.0116 µM (≈ 8.13 ng/mL) |
| C[C@@H](c1ncncc1F)[C@](O)(Cn1cncn1)c1ccc(F)cc1F [Voriconazole] | 0.511 µM (≈ 179 ng/mL) | 2.58 µM (≈ 903 ng/mL) | 0.154 µM (≈ 53.8 ng/mL) |
